Source: US20240122180A1, “FUNGICIDAL HALOMETHYL KETONES AND HYDRATES AND THEIR MIXTURES” (FMC Corporation, priority 2020, published 2024)
Marks after values point to notes of the source that are not given here.

Legend:
Assay type in all cases: in vivo
[1] = test system: Zymoseptoria tritici (the causal agent of wheat leaf blotch); assay: Test D: preventive spray on wheat seedlings, disease rating (100 = 100% control; * 50 ppm, ** 10 ppm, *** 250 ppm); details: 250 ppm test suspension, 100 = 100% disease control
Outline: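 Compounds first dissolved in acetone (3% of final volume), then suspended in 50/50 acetone/water with 250 ppm PEG400 and sprayed to run-off on wheat seedlings; Z. tritici spores inoculated next day. Incubated saturated at 24° C. 48 h, then 20° C. 17 days; disease control rated 0–100 versus controls.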

[2] = test system: Phakopsora pachyrhizi (the causal agent of Asian soybean rust); assay: Test A: preventive spray on soybean seedlings, visual disease rating (100 = 100% control; * 50 ppm, ** 10 ppm, *** 250 ppm); details: 100 = 100% disease control
Outline: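 Soybean seedlings sprayed to run-off with compound suspended in acetone/water with 250 ppm PEG400 surfactant, inoculated next day with P. pachyrhizi spores. Kept 24 h saturated at 22 °C, then 8 days at 22 °C before visual rating of disease control (0-100) relative to controls.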

[3] = test system: Uncinula necator (the causal agent of grape powdery mildew); assay: Test C: preventive spray on grape seedlings, disease rating (100 = 100% control; * 50 ppm, ** 10 ppm, *** 250 ppm); details: 100 = 100% disease control
Excerpt: General protocol for preparing test suspensions for Tests A-E: the test compounds were first dissolved in acetone in an amount equal to 3% of the final volume and then suspended at the desired concentration (in ppm) in acetone and purified water (50/50 mix by volume) containing 250 ppm of the surfactant […] (polyhydric alcohol esters). The resulting test suspensions were then used in Tests A-E.
The test solution was sprayed to the point of run-off on grape seedlings. The following day the seedlings were inoculated with a spore suspension of Uncinula necator (the causal agent of grape powdery mildew) and incubated in a growth chamber at 20° C. for 12 days, after which time disease ratings were made.
Results for Tests A-E are given in Table A. In the Table, a rating of 100 indicates 100% disease control and a rating of 0 indicates no disease control (relative to the controls). An asterisk “*” or a double asterisk “**” or a triple asterisk “***” next to the rating value indicates a 50 ppm, 10 ppm and 250 ppm test suspension was used, respectively. A dash (-) indicates the compound was not tested.

[4] = test system: Puccinia recondita f. sp. tritici (the causal agent of wheat leaf rust); assay: Test B: preventive spray on wheat seedlings, disease rating (100 = 100% control; * 50 ppm, ** 10 ppm, *** 250 ppm); details: 100 = 100% disease control
Outline: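 Wheat seedlings sprayed to run-off with compound in acetone/water (50/50) containing 250 ppm PEG400, inoculated next day with Puccinia recondita f. sp. tritici spores. Held 24 h saturated at 20° C, then 6 days at 20° C; disease control rated 0–100 relative to controls.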

[5] = test system: Blumeria graminis f. sp. tritici (the causal agent of wheat powdery mildew); assay: Test E: preventive spray on wheat seedlings, visual disease rating (100 = 100% control; * 50 ppm, ** 10 ppm, *** 250 ppm); details: 250 ppm test suspension, 100 = 100% disease control
Outline: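 Test suspension (3% acetone, acetone/water 50/50, 250 ppm PEG400) sprayed to run-off on wheat seedlings; inoculated next day with powdery mildew spore dust and kept 8 days at 20 °C. Visual rating, 100 = full and 0 = no control relative to untreated.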

[6] = 10 ppm test suspension, soybean seedlings
[7] = 250 ppm test suspension, grape seedlings
[8] = 10 ppm test suspension, wheat seedlings
[9] = 10 ppm test suspension, 0 = no control
[10] = 250 ppm test suspension, 0 = no control
[11] = 50 ppm test suspension, 0 = no control

For `CCO/C(=C\Oc1ccc(Cn2cc(C(=O)OCC3CC3)cn2)cc1)C(F)(F)F` [compound 220], the “Test D disease control rating” value ([1]; wheat seedlings) was 28*** %, the “Test A disease control rating” value [2, 6] was 100% and the “Test C disease control rating” value [3, 7] was 85*** %. For the same molecule, the “Test B disease control rating” value [4, 8] was 0% and the “Test E disease control rating” value ([5]; wheat seedlings) was 92*** %.
In the case of `CCO/C(=C\Oc1ccc(Cn2cc(C(=O)NC)cn2)cc1)C(F)(F)F` [compound 414], the “Test D disease control rating” value ([1]; 0 = no control) is reported as 97*** %, the “Test A disease control rating” value [2, 9] is reported as 45% and the “Test C disease control rating” value [3, 10] is reported as 91*** %. The “Test B disease control rating” value [4, 9] was 0% and the “Test E disease control rating” value ([5]; 0 = no control) was 90*** %.
For `CCO/C(=C\Oc1ccc(Cn2cc(C(=O)OC)cn2)cc1)C(F)(F)F` [compound 138], the “Test D disease control rating” value ([1]; wheat seedlings) was 31*** %, the “Test A disease control rating” value [2, 6] was 100% and the “Test C disease control rating” value ([3]; 50 ppm test suspension, grape seedlings) was 100* %. The “Test B disease control rating” value [4, 8] was 0% and the “Test E disease control rating” value ([5]; wheat seedlings) was 99*** %.
In the case of `CCO/C(=C\Oc1ccc(Cn2cc(C(=O)N(CC)CC)cn2)cc1)C(F)(F)F` [compound 438], the “Test D disease control rating” value ([1]; 0 = no control) is reported as 26*** %, the “Test A disease control rating” value [2, 11] is reported as 73% and the “Test C disease control rating” value [3, 10] is reported as 59*** %. The “Test B disease control rating” value [4, 11] was 0% and the “Test E disease control rating” value ([5]; 0 = no control) was 98*** %.
In the case of `O=C(NCC1CC1)c1cnc(Cc2ccc(OCC(O)(O)C(F)(F)F)cc2)o1` [compound 247], the “Test D disease control rating” value ([1]; wheat seedlings) is reported as 79*** %, the “Test A disease control rating” value [2, 6] is reported as 13% and the “Test C disease control rating” value [3, 7] is reported as 21*** %. For the same molecule, the “Test B disease control rating” value [4, 8] was 0% and the “Test E disease control rating” value ([5]; wheat seedlings) was 21*** %.
For `CCO/C(=C\Oc1ccc(Cc2ncc(C(=O)NCC(F)F)s2)cc1)C(F)(F)F` [compound 276], the “Test D disease control rating” value ([1]; 0 = no control) was 53*** %, the “Test A disease control rating” value [2, 9] was 13% and the “Test C disease control rating” value [3, 11] was 100* %. The “Test B disease control rating” value [4, 9] was 0% and the “Test E disease control rating” value ([5]; 0 = no control) was 86*** %.
In the case of `CCO/C(=C\Oc1ccc(Cn2cc(C(=O)NC3CCCC3)cn2)cc1)C(F)(F)F` [compound 428], the “Test D disease control rating” value ([1]; 0 = no control) is reported as 2*** %, the “Test A disease control rating” value [2, 9] is reported as 0% and the “Test C disease control rating” value [3, 10] is reported as 43*** %. The “Test B disease control rating” value [4, 9] was 0% and the “Test E disease control rating” value ([5]; 0 = no control) was 0*** %.
With `CCCOC(=O)c1cnn(Cc2ccc(O/C=C(\OCC)C(F)(F)F)cc2)c1` [compound 217] the “Test D disease control rating” value ([1]; wheat seedlings) was 23*** %, the “Test A disease control rating” value [2, 6] was 100% and the “Test C disease control rating” value [3, 7] was 75*** %. For the same molecule, the “Test B disease control rating” value [4, 8] was 0% and the “Test E disease control rating” value ([5]; wheat seedlings) was 96*** %.
For `CCO/C(=C\Oc1ccc(Cn2cc(C(=O)OCC(C)=O)cn2)cc1)C(F)(F)F` [compound 216], the “Test D disease control rating” value ([1]; wheat seedlings) was 37*** %, the “Test A disease control rating” value [2, 6] was 100% and the “Test C disease control rating” value [3, 7] was 20*** %. For the same molecule, the “Test B disease control rating” value [4, 8] was 0% and the “Test E disease control rating” value ([5]; wheat seedlings) was 87*** %.
With `C#CCOC(=O)c1cnn(Cc2ccc(OCC(O)(O)C(F)(F)F)cc2)c1` [compound 44] the “Test D disease control rating” value ([1]; wheat seedlings) was 98*** %, the “Test A disease control rating” value [2, 6] was 97% and the “Test C disease control rating” value [3, 7] was 16*** %. For the same molecule, the “Test B disease control rating” value [4, 8] was 85% and the “Test E disease control rating” value ([5]; wheat seedlings) was 91*** %.
With `CCO/C(=C\Oc1ccc(Cn2cc(Br)cn2)cc1)C(F)(F)F` [compound 183] the “Test D disease control rating” value ([1]; wheat seedlings) was 66*** %, the “Test A disease control rating” value [2, 6] was 0% and the “Test C disease control rating” value [3, 7] was 70*** %. For the same molecule, the “Test B disease control rating” value [4, 8] was 0% and the “Test E disease control rating” value ([5]; wheat seedlings) was 0*** %.
`CCO/C(=C\Oc1ccc(Cn2cc(C(=O)NCC(=O)OC)cn2)cc1)C(F)(F)F` [compound 427] was tested, and the “Test D disease control rating” value ([1]; 0 = no control) was 53*** %, the “Test A disease control rating” value [2, 9] was 13% and the “Test C disease control rating” value [3, 10] was 5*** %. The “Test B disease control rating” value [4, 9] was 0% and the “Test E disease control rating” value ([5]; 0 = no control) was 29*** %.
For `CCO/C(=C\Oc1ccc(Cn2cc(C(=O)OCC(C)C)cn2)cc1)C(F)(F)F` [compound 219], the “Test D disease control rating” value ([1]; wheat seedlings) was 0*** %, the “Test A disease control rating” value [2, 6] was 100% and the “Test C disease control rating” value [3, 7] was 92*** %. The “Test B disease control rating” value [4, 8] was 0% and the “Test E disease control rating” value ([5]; wheat seedlings) was 83*** %.
`CCOC(=O)c1cnn(Cc2c(F)c(F)c(OCC(O)(O)C(F)(F)F)c(F)c2F)c1` [Compound 465] was tested, and the “Test D disease control rating” value ([1]; 0 = no control) was 59*** %, the “Test A disease control rating” value [2, 11] was 100% and the “Test C disease control rating” value [3, 10] was 73*** %. The “Test B disease control rating” value [4, 11] was 100% and the “Test E disease control rating” value ([5]; 0 = no control) was 91*** %.
For `CCO/C(=C\Oc1cccc(Cn2cc(C(=O)N(CC)CC)cn2)c1)C(F)(F)F` [compound 404], the “Test D disease control rating” value ([1]; 0 = no control) was 11*** %, the “Test A disease control rating” value [2, 11] was 0% and the “Test C disease control rating” value [3, 10] was 44*** %. The “Test B disease control rating” value [4, 11] was 0% and the “Test E disease control rating” value ([5]; 0 = no control) was 0*** %.
For `CCOC(=O)c1cnn(Cc2ccc(O/C=C(\OCC)C(F)(F)F)c(C#N)c2)c1` [compound 416], the “Test D disease control rating” value ([1]; 0 = no control) was 0*** %, the “Test A disease control rating” value [2, 11] was 81% and the “Test C disease control rating” value [3, 10] was 34*** %. The “Test B disease control rating” value [4, 11] was 0% and the “Test E disease control rating” value ([5]; 0 = no control) was 0*** %.
In the case of `O=C(NCC1CC1)c1cnc(Cc2ccc(OCC3(C(F)(F)F)OCCO3)cc2)o1` [compound 248], the “Test D disease control rating” value ([1]; wheat seedlings) is reported as 93*** %, the “Test A disease control rating” value [2, 6] is reported as 71% and the “Test C disease control rating” value [3, 7] is reported as 62*** %. For the same molecule, the “Test B disease control rating” value [4, 8] was 0% and the “Test E disease control rating” value ([5]; wheat seedlings) was 89*** %.
With `N#Cc1cnn(Cc2ccc(OCC(O)(O)C(F)(F)F)cc2)c1` [compound 206] the “Test D disease control rating” value ([1]; wheat seedlings) was 93*** %, the “Test A disease control rating” value ([2]; 50 ppm test suspension, soybean seedlings) was 100% and the “Test C disease control rating” value [3, 7] was 34*** %. The “Test B disease control rating” value ([4]; 50 ppm test suspension, wheat seedlings) was 98% and the “Test E disease control rating” value ([5]; wheat seedlings) was 93*** %.
With `O=C(NCC(F)(F)F)c1cnc(Cc2ccc(OCC3(C(F)(F)F)OCCO3)cc2)o1` [compound 257] the “Test D disease control rating” value ([1]; 0 = no control) was 35*** %, the “Test A disease control rating” value [2, 9] was 54% and the “Test C disease control rating” value [3, 10] was 81*** %. The “Test B disease control rating” value [4, 9] was 0% and the “Test E disease control rating” value ([5]; 0 = no control) was 92*** %.
For `CCS(=O)(=O)N1CC(c2ccc(OCC3(C(F)(F)F)OCCO3)cc2)C1` [compound 382], the “Test D disease control rating” value ([1]; 0 = no control) was 4*** %, the “Test A disease control rating” value [2, 11] was 0% and the “Test C disease control rating” value [3, 10] was 22*** %. For the same molecule, the “Test B disease control rating” value [4, 11] was 0% and the “Test E disease control rating” value ([5]; 0 = no control) was 56*** %.
In the case of `CCOC(=COc1ccc(OC(=O)c2ccccc2F)cc1)C(F)(F)F` [compound 379], the “Test D disease control rating” value ([1]; 0 = no control) is reported as 0*** %, the “Test A disease control rating” value [2, 11] is reported as 0% and the “Test C disease control rating” value [3, 10] is reported as 93*** %. For the same molecule, the “Test B disease control rating” value [4, 11] was 0% and the “Test E disease control rating” value ([5]; 0 = no control) was 21*** %.
`N#Cc1ccc(OCC(O)(O)C(F)(F)F)cc1` [compound 142] was tested, and the “Test D disease control rating” value ([1]; wheat seedlings) was 100*** %, the “Test A disease control rating” value [2, 6] was 92% and the “Test C disease control rating” value [3, 7] was 19*** %. The “Test B disease control rating” value [4, 8] was 100% and the “Test E disease control rating” value ([5]; wheat seedlings) was 99*** %.
